Test results published in patent US7314866B2, “Ku-70-derived Bax-suppressing peptides and use thereof for the protection of damaged cells” (Bloodcenter of Wisconsin, Inc., priority 2002, dated 2008).
One block for each molecule: values may come before it. Where a SMILES comes first, the peptide text is derived from it. Where no end group is shown, it is not given here.

What was measured:
HEK293T cells = assay: Bax-induced apoptosis in HEK293T cells (pcDNA3-Bax transfection, Hoechst staining); type: cell-based, human; conditions: for Suppression of Bax-induced apoptosis by co-transfected Ku70 mutant: 2.0 ug pCMV-2B construct co-transfected with pcDNA3-Bax; for Suppression of Bax-induced apoptosis: peptide delivered into the cells by liposome (BioPorter)
Method: FIG. 1 illustrates that new peptides designed from Ku70 show anti-Bax activity. FIG. 1A: scheme of Ku70 full-length (Ku70 wt), Ku701-577 (Ku70Δ578–609), or Ku70578-609 (Ku70Δ1–577). FIG. 1C: HEK293T cells were transfected with 1.0 ug of pCMV-2B-control vector (Control) or pcDNA3-Bax (Bax) together with 2.0 ug of pCMV-2B-Ku70 wt (Ku70 wt), pCMV-2B-Ku701-577 (Ku701-577), or pCMV-2B-Ku70578-609 (Ku70578-609). All the cells were also co-transfected with 0.5 ug pEGFP for the marking of transfected cells. Apoptosis in the transfected cells was analyzed 24 hours following transfection with Hoechst dye staining of the nucleus as described in Methods. FIG. 1D: HEK293T cells were incubated with 200 uM peptide composed of Ku70578-587 or Ku70596-600 for 4 hours using BioPorter reagent, and then transfected with 1.0 ug of pCDNA3-control vector (Control) or pcDNA3-Bax (Bax). The number of apoptotic cells was determined as described in FIG. 1C. FIG. 1E: HEK293T cells (10^6 cells) were incubated with 200 uM IPMIK (negative control peptide) or VPMLK (V5) and PMLKE (P5) peptides at the indicated concentrations for 1 hour and then incubated cells were transfected with 1.0 ug of pcDNA3-Bax. Also, unincubated cells were transfected with 1.0 ug of pcDNA3-Bax in the presence or absence of 200 uM z-VAD-fmk. The number of apoptotic cells was determined as described in FIG. 1C. FIG. 1F: Summary of the anti-Bax activity and sequence of all peptides used.
HEK293T and HeLa cells were cultured in MEM supplemented with 10% fetal bovine serum (FBS) and Du145 cells and mouse embryonic fibroblasts (MEFs) were in DMEM with 10% FBS. Transfection of the plasmids was performed by SuperFect (Qiagen) according to the manufacturer's manual. Apoptosis was induced by pcDNA3-human Bax (Bax-encoding plasmid)-transfection, Staurosporin (STS)-treatment and UVC-irradiation. The amount of the plasmids, the concentration of STS, and the energy of UVC-irradiation are described in the figure legends. Apoptosis in the transfected cells was analyzed as follows: A plasmid encoding enhanced green fluorescent protein (EGFP) (0.5 ug to 10^6 cells) was transfected to all the groups to mark the transfected cells. After the treatment, cells were stained with Hoechst dye and cells with apoptotic nuclei were counted in GFP-expressing cells under the fluorescent microscope as described by Matsuyama, et al., J. Biol. Chem. 273:30995–31001, 1998. Each point in the figures showing percentages of apoptosis represents the mean +/−SE of three experiments. Caspase activities of cells were measured by detecting the cleavage of fluorogenic substrate of Caspase (DEVD-afc) as previously described.
BioPorter-based peptide delivery was performed 4 hours before apoptosis induction.

endogenous Bax = target: T1, endogenous Bax (Homo sapiens, UniProt Q07812); assay: Co-immunoprecipitation of Flag-tagged Ku70 mutants and endogenous Bax; type: binding; conditions: HEK293T cells
T1 construct: endogenous in cells; host or cells: HEK293T
Method: Endogenous protein: HEK293T (10^7 cells) were lysed in 200 ul of “CHAPS-based buffer” (150 mM NaCl, 10 mM Hepes, pH 7.4, 1.0% CHAPS) containing protease inhibitors (100 times dilution of Protease Inhibitors Cocktail; Sigma) according to the previously reported method (Hsu and Youle, J. Biol. Chem. 273:10777–10783, 1998). After precleaning of 600 ul of the sample with 50 ul of Protein G-Sepharose at 4° C. for 1 hour, immunoprecipitations were performed by incubating 200 ul of lysates with 20 ul of Protein G-Sepharose preabsorbed with 2 ug of anti-Bax polyclonal (BD-Pharmingen) or anti-Ku70 monoclonal antibody (BD-Pharmingen) at 4° C. for 2 hours. In some cases, 2 ug of anti-Bax monoclonal antibody (clone 6A7, BD Pharmingen) was used to detect active form of Bax. After extensive washing in the buffer, beads were boiled in 40 ul of Laemmli buffer and 20 ul of the eluted proteins were subjected to SDS-PAGE. Co-precipitation of biotin-labeled peptides and endogenous Bax using streptavidin beads: HEK293T cells (10^7 cells) lysed in 200 ul CHAPS-based buffer were incubated with biotin-labeled negative control (NC) peptide or VPMLK (V5; SEQ ID NO: 1) peptide for 1 hour. The concentrations of NC and V5 peptide labeled with biotin are described in the figure legends. […]

[1] = target: T2, interaction of Ku70 and Bax (Homo sapiens, UniProt Q07812); assay: Co-immunoprecipitation of endogenous Ku70 and Bax in cell lysates with added peptide; type: binding; conditions: peptide added to cell lysates
T2 construct: endogenous in cells; HeLa and 293 cells for the V6 peptide
Method: FIGS. 6A–D: HEK293T cells (10^7 cells) lysed in CHAPS buffer were incubated with 200 uM negative control (NC) peptide or (A) VPMLK (V5, SEQ ID NO: 1), (B) PMLKE (P5, SEQ ID NO: 2), (C) PMLK (P4, SEQ ID NO: 3), and (D) MLKE (M4, SEQ ID NO: 6) at the indicated concentrations for 1 hour. Immunoprecipitation was performed with anti-Ku70 monoclonal antibody or anti-Bax polyclonal antibody using CHAPS buffer as described in Methods. Mouse IgG and pre-immune rabbit serum (NRS) were used as negative controls.
By testing several deletion mutants of the Ku70 protein, I have identified the Bax-binding domain in Ku70. The domain comprises 6 amino acids (VPMLKE, SEQ ID NO: 7). This peptide (Ku70 Peptide V6) inhibits the interaction of Ku70 and Bax at the concentration of 20–80 μM in lysates prepared from human cultured cells (HeLa cells and human kidney epithelial 293 cells).
Endogenous protein: HEK293T (10^7 cells) were lysed in 200 ul of “CHAPS-based buffer” (150 mM NaCl, 10 mM Hepes, pH 7.4, 1.0% CHAPS) containing protease inhibitors (100 times dilution of Protease Inhibitors Cocktail; Sigma) according to the previously reported method (Hsu and Youle, J. Biol. Chem. 273:10777–10783, 1998). […]

[2] = Membrane permeability and cellular retention of peptides; type: in vitro ADME
human Bax = target: T3, human Bax (human, UniProt Q07812 1-192); assay: fluorescence microscopy of HeLa cells and of Du145 cells with or without pcDNA3-Bax
T3 construct: Protein in cell lysates or cells, not purified; also called endogenous Bax; pcDNA3-Bax (human)
Method: HeLa cells and transfected or untransfected Du145 cells with pcDNA3-Bax were incubated with 200 uM FITC-labeled VPMLK (V5; SEQ ID NO: 1) peptide for 1 hour prior to microscopic analysis by fluorescent microscope. For immunostaining, cells incubated with FITC-V5 peptide for 1 hour were fixed with 4% paraformaldehyde in phosphate buffered saline (PBS). Cells were permeablized with 0.5% Triton X-100 and 0.05% Tween-20 in PBS. Fixed cells were incubated in PBS containing 5% BSA at 37 C, and stained with anti-Bax monoclonal antibody (BD-Pharmingen, dilution 1:50) followed by the detection of Texas-Red labeled anti-mouse IgG (Jackson ImmunoResearch, dilution 1:100).

[3] = target: T4, endogenous Bax in Ku70-deficient mouse embryonic fibroblasts (mouse, UniProt Q07813 1-192); assay: Scatchard analysis; FITC fluorescence before and after immunoprecipitation of Bax from Ku70-deficient MEF cytosol
T4 construct: also called endogenous Bax in Ku70-deficient MEFs
Method: The interaction of BIP and Bax was confirmed by experiments using the system of biotin-labeled BIP and streptavidin beads. Biotin-labeled BIP (biotin-VPMLK; SEQ ID NO: 1), but not negative control peptide (biotin-IPMIK; SEQ ID NO: 5) precipitated Bax from the cell lysates when the streptavidin beads were added to the samples.
Ku70-deficient MEFs (10^7 cells) were lysed in 200 ul of "detergent-free hypotonic buffer" (hypotonic (5 mM NaCl) phosphate buffered saline, pH 7.4) containing protease inhibitors (100 times dilution of Protease Inhibitors Cocktail; Sigma) according to the previously reported method (Hsu and Youle, supra, 1998). For Scatchard analysis, the cytosol fraction was used and NaCl was added to prepare the isotonic condition before immunoprecipitation as previously reported (Hsu and Youle, supra, 1998). […] FITC fluorescence of pre-immunoprecipitation ("B"+"F") and the supernatant following immunoprecipitation ("F") were measured by fluorescence microplate reader (Molecular Devices), and the values of "B+F" and "B" were calculated. Kd was calculated by Scatchard plot. […] No significant binding of FITC-V5 to the cellular components was detected in Bax-immunodepleted samples.

T2 sequence (Q07812 whole entry): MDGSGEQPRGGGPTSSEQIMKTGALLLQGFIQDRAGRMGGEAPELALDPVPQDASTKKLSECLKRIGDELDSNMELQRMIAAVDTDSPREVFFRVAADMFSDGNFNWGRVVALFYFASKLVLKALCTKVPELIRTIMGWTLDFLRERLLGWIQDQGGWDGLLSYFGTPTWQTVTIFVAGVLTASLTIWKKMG
T1 sequence (Q07812 whole entry): as above
T3 sequence (Q07812 whole entry): as above
T4 sequence (Q07813 whole entry): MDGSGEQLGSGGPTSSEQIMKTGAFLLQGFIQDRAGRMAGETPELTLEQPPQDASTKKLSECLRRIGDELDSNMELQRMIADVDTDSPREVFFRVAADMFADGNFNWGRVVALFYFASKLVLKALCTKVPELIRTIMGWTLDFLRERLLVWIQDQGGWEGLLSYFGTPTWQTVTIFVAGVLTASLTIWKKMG

Molecule: Ku70578-609: Flag-tagged Ku70 mutant expressing the amino acids 578–609 of Ku70 (VPMLKEACRAYGLKSGLKKQELLEALTKHFQD; also: Flag-tagged)
Suppression of Bax-induced apoptosis by co-transfected Ku70 mutant (HEK293T cells): suppressed Bax-induced apoptosis
Binding of Flag-tagged Ku70 mutant to endogenous Bax (endogenous Bax): binds endogenous Bax

Molecule: MLKE [four amino acid deletion peptide]
Effect on the interaction of Ku70 and Bax [1]: did not interfere with Bax-Ku70 interaction

Molecule: 596–600: synthetic peptide of Ku70 amino acids 596–600 (KQELL; UniProt P12956 596-600, looked up, fragment)
Suppression of Bax-induced apoptosis (HEK293T cells): not

Molecule: Ku70 Peptide NC: immediate next six amino acid sequence of Ku70, negative control (LGKFTV) [reference compound]
Effect on the interaction of Ku70 and Bax [1]: did not affect the interaction of Ku70 and Bax

Molecule: 578–587: synthetic peptide of Ku70 amino acids 578–587, 2nd α-helix from the C-terminus (VPMLKEACRA; UniProt P12956 578-587, looked up, fragment)
Suppression of Bax-induced apoptosis (HEK293T cells): inhibited Bax-induced apoptosis

Molecule: Ku701-577: Ku70 mutant deleted of amino acids 578–609
Suppression of Bax-induced apoptosis by co-transfected Ku70 mutant (HEK293T cells): not
Binding of Flag-tagged Ku70 mutant to endogenous Bax (endogenous Bax): did not

Now from value to molecule:

Retention of the peptide in the cell [2]: not retained in the cell
Molecule: CSCC[C@H](NC(=O)[C@@H]1CCCN1)C(=O)N[C@@H](CC(C)C)C(=O)N[C@@H](CCCCN)C(=O)O [PMLK] (H-PMLK-OH; N-terminus and C-terminus assumed)

Membrane permeability [2]: membrane permeable
Retention of the peptide in the cell [2]: effectively retained inside the cells
Molecule: CSCC[C@H](NC(=O)[C@@H]1CCCN1)C(=O)N[C@@H](CC(C)C)C(=O)N[C@@H](CCCCN)C(=O)N[C@@H](CCC(=O)O)C(=O)O [PMLKE] (H-PMLKE-OH; N-terminus and C-terminus assumed)

Membrane permeability [2]: membrane permeable
Retention of the peptide in the cell [2]: effectively retained inside the cells
Molecule: CSCC[C@H](NC(=O)[C@@H]1CCCN1C(=O)[C@@H](N)C(C)C)C(=O)N[C@@H](CC(C)C)C(=O)N[C@@H](CCCCN)C(=O)O [VPMLK] (H-VPMLK-OH; N-terminus and C-terminus assumed)

Membrane permeability [2]: not membrane permeable
Molecule: CSCC[C@H](NC(=O)[C@@H]1CCCN1C(=O)[C@@H](N)C(C)C)C(=O)N[C@@H](CC(C)C)C(=O)N[C@@H](CCCCN)C(=O)N[C@@H](CCC(=O)O)C(=O)O [VPMLKE] (H-VPMLKE-OH; N-terminus and C-terminus assumed)

binding result (human Bax): binds
Kd [3]: 1300 nM
Molecule: VPMLK (also: FITC-labeled, position of label not given here, also called FITC-BIP; FITC-V5) [FITC-labeled BIP (VPMLK; SEQ ID NO: 1)]
